Results reported in US20070270349A1, “Glutathione Derivatives and Their Uses for the Treatment of Viral Diseases” (priority 2003, published 2007).

Key:
HSV-1 = HSV-1 replication in Vero cells, plaque assay; format: cell-based, human herpes simplex virus type 1
Experimental: (§1) The Senday virus (SV) belonging to the Paramyxovirus family is a virus with non-segmented single stranded RNA of negative polarity. This virus was reproduced by inoculation in the allantoic liquid of embryonated chicken eggs. The monolayers of MDCK cells were infected with SV [3 hemagglutinating units (HAU)×10^5 cells]. After incubation for 1 hour at 37° C. (adsorption period), the unadsorbed viruses were removed, the monolayers were washed and then incubated in a complete medium containing 2% of bovine fetal serum. The production of viruses by infected cells was determined in the cellular supernatants at different intervals of time from infection (p.i.), measuring the hemagglutinating activity towards type 0 Rh+ human erythrocytes (HAU), according to standard procedures. […] Monkey kidney cells (VERO) were grown in RPMI, to which 5% of serum was added. The human herpes simplex virus type 1 (HSV-1), clinically isolated (TV1), was grown and titered in the Vero cells as described in Palamara, A. T., Perno, C. F., Ciriolo, M. R., Dini, L., Balestra, E., D'Agostini, C. et al. (1995). […] Antiviral Research 27, 237-253.
(§2) To obtain the viral infection, monolayers of Vero cells were infected with HSV-1 at a MOI (multiplicity of infection) of 0.03 PFU/cell. After incubation for 1 hour at 37° C. (adsorption period) the unadsorbed viruses were removed, the monolayers were washed and then incubated with culture medium containing 2% bovine fetal serum. GSH-C4 was added in identical doses to the ones indicated above immediately after the adsorption period and was maintained in the culture medium until completion of the experiments. Supernatants from infected cells were collected at different times after contact with the virus and tested for the ability to form plaques in Vero cells, using a standard titration method. Similar experiments were also conducted on HSV-1 TK-D305.
Vero cells were infected for 1 hour with HSV-1 at a MOI of 0.03 PFU/cell. After repeated washings, GSH-C4 was added at different concentrations (range 0-10 mM) to the cell cultures. Replication of the viruses was tested in the Vero cells 48 h after infection using the plaque technique.

Sendai virus = Sendai virus replication in MDCK cells, hemagglutinating activity in supernatant; format: cell-based; conditions: for EC50 / inhibition at 5000 µM: Respirovirus muris; for EC50: 48 h, MDCK cells, read-out: 50% of inhibition of viral reproduction (EC50); for inhibition at 5000 µM: MDCK, 5 mM
Experimental: To measure the behavior of GSH-C4 derivatives in infected cells, Madin Darby canine kidney cells (MDCK) were grown in RPMI 1640 to which 5% of heat-decomplemented bovine fetal serum (Flow Laboratories, Italy) was added.
as §1
MDCK cells were infected for 1 hour with 3 hemagglutinating units (HAU)×10^5 cells. The cells were washed and then cultivated in the presence of different concentrations of GSH-C4 (range 0-7.5 mM) for 2 days. Production of the virus was assayed at 24 hours (panel A) and 48 hours (panel B) measuring the hemagglutinating activity on type 0 Rh+ human erythrocytes.

erythrocytes (RBCs) = test: Entry into erythrocytes, oil-stop method; format: in vitro ADME; conditions: calculated in the first 30 minutes, 37° C., 10% hematocrit
Experimental: The entry of GSH and GSH-C4 into erythrocytes (RBCs) at 37° C. in microcentrifugal test-tubes was measured using the oil-stop method. […] A Manual of Biochemical Methods, 3rd edn. Grune & Stratton, New York).

[1] = target: T1, glutathione peroxidase (E.C.1.11.1.9.) (Homo sapiens, UniProt P07203); test: Glutathione peroxidase activity in hemolyzed human blood with GSH or GSH-C4 as substrate; format: biochemical; conditions: 2 mM substrate
T1 construct: measured in hemolyzed human blood; from tissue; host or cells: hemolyzed human blood
T1 sequence (P07203 1-203): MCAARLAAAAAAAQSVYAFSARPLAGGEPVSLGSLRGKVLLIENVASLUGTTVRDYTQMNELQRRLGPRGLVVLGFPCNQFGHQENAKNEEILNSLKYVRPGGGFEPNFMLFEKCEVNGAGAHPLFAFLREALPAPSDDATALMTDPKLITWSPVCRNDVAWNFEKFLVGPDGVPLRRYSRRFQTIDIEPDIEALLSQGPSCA
Experimental: (§3) Enzymatic determinations of the activity of glutathione peroxidase (E.C.1.11.1.9.) and glutathione S-transferase (E.C.2.5.1.18.) in hemolyzed human blood in the presence of GSH and of its derivative GSH-C4 were carried out according to the methods of Beutler (Beutler, E., 1984, Red Cell Metabolism. A Manual of Biochemical Methods, 3rd edn. Grune & Stratton, New York). GSH and GSH-C4 were then oxidized by incubation at ambient temperature in the presence of 35% (v/v) H2O2 to respectively obtain GSSG and C4-GSSG-C4.
(§4) The enzymatic activities of glutathione peroxydase and glutathione S-transferase were measured in hemolyzed human blood in the presence of GSH-C4 or GSH 2 mM as substrates. […] Moreover, GSH and GSH-C4 were chemically oxidized in the corresponding disulphide forms (GSSG and C4-GSSG-C4).

[2] = tested on: glutathione S-transferase (E.C.2.5.1.18.); test: Glutathione S-transferase activity in hemolyzed human blood with GSH or GSH-C4 as substrate; format: biochemical; conditions: 2 mM substrate
Experimental: as §3, §4

uninfected Vero cells = test: Toxic effects in uninfected Vero cells; format: cell-based, Monkey
HSV-1 TK− = test: HSV-1 TK- (Δ305) replication in Vero cells, plaque forming units; format: cell-based, human herpes simplex virus type 1
Experimental: as §2
Vero cells were infected for 1 h at 37° C. with the strain Δ305 and then kept in culture in the presence of different concentrations of GSH-C4. The production of viruses was measured 24, 48 and 72 h after infection by assay of the plaque forming units.

[3] = tested on: uninfected Madin Darby canine kidney cells (MDKC); test: Toxicity on confluent monolayers of uninfected MDCK cells (morphology, Trypan blue vitality, cell count); format: cell-based; conditions: for toxic effect or change in cell morphology: uninfected MDCK monolayers, concentrations used in the experiments
Experimental: The toxicity was measured on the basis of microscopic examinations of cellular morphology, of measurement of cellular vitality after staining with Trypan blue and of the cell count. All compounds were diluted in RPMI, the final pH of the solution was approximately 7-7.3.

N[C@@H](CCC(=O)N[C@@H](CS)C(=O)NCC(=O)O)C(=O)O [GSH, γ-glutamylcysteinylglycine, reference compound]
complete inhibition of the virus (HSV-1; 10 mM): does not induce complete inhibition of the virus | reduction in virus replication (HSV-1; 10 mM): around 2.5 log | EC50 (Sendai virus): 7.6 mM | entry speed into erythrocytes (erythrocytes (RBCs)): 2.33 nmol/min/ml RBCs

CCCC(=O)N[C@@H](CCC(=O)N[C@@H](CS)C(=O)NCC(=O)O)C(=O)O [GSH-C4, n-butanoyl γ-glutamylcysteinylglycine]
glutathione peroxydase activity compared to that in the presence of GSH [1]: 1.8% | virus particles in the cellular supernatant (HSV-1; 10 mM, 48 h after infection): no virus particles were detected | inhibition of virus replication 72 h after infection (HSV-1; 72 h after infection): same inhibition | protection from cytopathic effects induced by the virus (HSV-1; HSV-1 infected Vero cells): protects the Vero cells from the cytopathic effects induced by the virus | inhibition at 7500 µM (HSV-1; Human alphaherpesvirus 1, Vero, 48 h, read-out: inhibition of viral replication compared to the control): 60% | glutathione S-transferase activity compared to that in the presence of GSH [2]: 3.5% | toxic effects in uninfected Vero cells (uninfected Vero cells): does not induce any toxic effects | activity against the strain TK− compared with the wild type strain (HSV-1 TK−): less active | HSV-1 TK− titer (HSV-1 TK−; 5 mM, 24 h): 2.59 × 10^5 pfu/ml | HSV-1 TK− titer (HSV-1 TK−; 5 mM, 48 h): 2.42 × 10^6 pfu/ml | HSV-1 TK− titer (HSV-1 TK−; 5 mM, 72 h): 2.13 × 10^6 pfu/ml | HSV-1 TK− titer (HSV-1 TK−; 7.5 mM, 24 h): 1.59 × 10^5 pfu/ml | HSV-1 TK− titer (HSV-1 TK−; 7.5 mM, 48 h): 2.56 × 10^5 pfu/ml | HSV-1 TK− titer (HSV-1 TK−; 7.5 mM, 72 h): 4.33 × 10^5 pfu/ml | inhibition of virus titer (HSV-1 TK−; 7.5 mM, 72 h after infection): approximately 1 log | HSV-1 TK− titer (HSV-1 TK−; 10 mM, 24 h): 1.53 × 10^5 pfu/ml | HSV-1 TK− titer (HSV-1 TK−; 10 mM, 48 h): 2.6 × 10^5 pfu/ml | HSV-1 TK− titer (HSV-1 TK−; 10 mM, 72 h): 3.44 × 10^5 pfu/ml | virus in the supernatant of treated cells (Sendai virus; 7.5 mM): no viruses were found | inhibition at 5000 µM (Sendai virus; 24 h p.i.): 88% | inhibition at 5000 µM (Sendai virus; 48 h p.i.): 93% | EC50 (Sendai virus): 3.6 mM | toxicity for the cells, microscopic examination of the monolayers ([3]; 7.5 mM, MDCK monolayers of the Sendai experiment): without being toxic for the cells | toxic effect or change in cell morphology [3]: do not induce any toxic effect or change in cell morphology | entry speed into erythrocytes (erythrocytes (RBCs)): 4.33 nmol/min/ml RBCs

CCCCCCCC(=O)NC(CCC(=O)NC(CS)C(=O)NCC(=O)O)C(=O)O (stereo not drawn) [GSH-C8]
toxic effect or change in cell morphology [3]: marked toxic effects
